Among the data in patent publication US20110263594A1, “NOVEL TRIAZOLO(4,3-A)PYRIDINE DERIVATIVES, PROCESS FOR THE PREPARATION THEREOF, USE THEREOF AS MEDICAMENTS, PHARMACEUTICAL COMPOSITIONS AND NOVEL USE, IN PARTICULAR AS MET INHIBITORS” (SANOFI-AVENTIS, priority 2008, published 2011) are IC50 and melting point values, retold here.

Series [1] relates to HCT116 cells and MKN45 cells. The series can be described thus: Test C: measurement of cell proliferation by 14C-thymidine pulse. It counts as cell-based. Particulars: 14C-thymidine incorporation, 96 h of treatment; cell line not given. Here is the method: The cells are seeded into Cytostar 96-well plates in 180 μl for 4 hours at 37° C. and 5% CO2: HCT116 cells in a proportion of 2500 cells per well in DMEM medium+10% foetal calf serum+1% L-glutamine, and MKN45 cells in a proportion of 7500 cells per well in RPMI medium+10% foetal calf serum+1% L-glutamine. After these 4 hours of incubation, the products are added in 10 μl as a […] concentrated solution according to the dilution method mentioned for the ELISA. The products are tested at 10 concentrations in duplicate from 10 000 nM to 0.3 nM with an increment of 3.
After treatment for 72 h, 10 μl of ^14C-thymidine at 10 μCi/ml are added so as to obtain 0.1 μCi per well. The ^14C-thymidine incorporation is measured on a Micro-Beta machine (Perkin-Elmer) after 24 hours of pulse and 96 h of treatment.
All the steps of the assay are automated on BIOMEK 2000 or TECAN stations.

Series [2] deals with T1, MET (Homo sapiens, UniProt P08581). The series can be described thus: Test A: HTRF MET assay in 96-well format. It counts as biochemical. The arrangement: The His-Tev-MET (956-1390) recombinant DNA in pFastBac (Invitrogen) is transfected into insect cells; His-Tev (histidine tag with TEV cleavage site) (N, cleaved yes); made in house; host or cells: SF21 insect cells (baculovirus, pFastBac). Particulars: MET 5 nM, 10 μM ATP, poly-(GAT). Here is the method:
The His-Tev-MET (956-1390) recombinant DNA in pFastBac (Invitrogen) is transfected into insect cells and, after several viral amplification steps, the final baculovirus stock is tested for the expression of the protein of interest.
After infection for 72 h at 27° C. with the recombinant virus, SF21 cell cultures are harvested by centrifugation and the cell pellets are stored at −80° C.
The cell pellets are resuspended in the lysis buffer (buffer A [50 mM HEPES, pH 7.5, 250 mM NaCl, 10% glycerol, 1 mM TECP]; +cocktail of protease inhibitors, Roche Diagnostics, without EDTA, ref 1873580), stirred at 4° C. until the mixture is homogeneous, and then lysed mechanically using a “Dounce” type apparatus.
After centrifugation, the lysis supernatant is incubated for 2 h at 4° C. with nickel chelate resin (His-Trap 6 Fast Flow™, GE HealthCare). After washing with 20 volumes of buffer A, the suspension is packed into a column, and the proteins are eluted with a gradient of buffer B (buffer A+290 mM imidazole).
The fractions containing the protein of interest, for the purpose of electrophoretic analysis (SDS PAGE), are combined, concentrated by ultrafiltration (10 kDa cut-off) and injected onto an exclusion chromatography column (Superdex™ 200, GE HealthCare) equilibrated in buffer A.
After enzymatic cleavage of the histidine tag, the protein is reinjected onto a new IMAC nickel chelate chromatography column (His-Trap 6 Fast Flow™, GE HealthCare) equilibrated in buffer A. The fractions eluted with a gradient of buffer B and containing the protein of interest after electrophoresis (SDS PAGE) are finally combined and stored at −80° C.
For the production of autophosphorylated protein, the previous fractions are incubated for 1 h at ambient temperature after the addition of 2 mM ATP, 2 mM MgCl2 and 4 mM Na3VO4. After the reaction has been stopped with 5 mM of EDTA, the reaction mixture is injected onto a HiPrep desalifying column (GE HealthCare) pre-equilibrated in buffer A+4 mM Na3VO4, and the fractions containing the protein of interest (SDS PAGE analysis) are combined and stored at −80° C. The degree of phosphorylation is verified by mass spectrometry (LC-MS) and by peptide mapping.
MET at a final concentration of 5 nM is incubated in a final volume of 50 μl of enzymatic reaction in the presence of the test molecule (for a final concentration range of from 0.17 nM to 10 μM, 3% DMSO final concentration) in 10 mM MOPS buffer, pH 7.4, 1 mM DTT, 0.01% Tween 20. The reaction is initiated with the substrate solution to obtain final concentrations of 1 μg/ml poly-(GAT), 10 μM ATP and 5 mM MgCl2. After incubation for 10 min at ambient temperature, the reaction is stopped with a 30 μl mix so as to obtain a final solution of 50 mM Hepes, pH 7.5, 500 mM potassium fluoride, 0.1% BSA and 133 mM EDTA in the presence of 80 ng of streptavidin 61SAXLB Cis-Bio Int. and 18 ng of anti-phosphotyrosine Mab PT66-Europium Cryptate per well. After incubation for 2 hours at ambient temperature, the reading is taken at 2 wavelengths, 620 nm and 665 nm, on a reader for the TRACE/HTRF technique, and the % inhibition is calculated from the 665/620 ratios.
Target sequence in this assay (P08581 956-1390): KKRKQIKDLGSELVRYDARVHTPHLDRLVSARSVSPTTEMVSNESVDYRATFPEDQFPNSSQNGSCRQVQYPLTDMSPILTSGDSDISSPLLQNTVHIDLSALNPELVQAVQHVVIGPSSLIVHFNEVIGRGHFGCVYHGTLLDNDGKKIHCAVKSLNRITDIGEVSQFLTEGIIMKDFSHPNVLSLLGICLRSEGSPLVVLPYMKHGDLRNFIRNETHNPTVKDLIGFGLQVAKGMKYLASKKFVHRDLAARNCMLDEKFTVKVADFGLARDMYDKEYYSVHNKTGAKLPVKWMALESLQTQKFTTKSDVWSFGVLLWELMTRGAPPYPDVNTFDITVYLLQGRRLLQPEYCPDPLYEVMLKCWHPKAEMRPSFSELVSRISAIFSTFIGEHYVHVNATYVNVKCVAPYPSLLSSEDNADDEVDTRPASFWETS

In series [3] the target is T1, MET. As to the kind of experiment: Test B: inhibition of the autophosphorylation of MET, ELISA technique (pppY1230,1234,1235) in MKN45 cells. It counts as cell-based. The arrangement: endogenous in cells; host or cells: MKN45 cells. Particulars: 1 h treatment, phosphoMET ELISA. Here is the method:
B) Test B: Inhibition of the autophosphorylation of MET; ELISA technique (pppY1230,1234,1235) a) Cell lysates: MKN45 cells are seeded into 96-well plates (cell coat BD polylysine) at 20 000 cells/well in 200 μl in RPMI medium+10% FCS+1% L-glutamine. They are left to adhere for 24 hours in an incubator.
The cells are treated the day after seeding with the products at 6 concentrations, in duplicate, for 1 h. At least 3 control wells are treated with the same final amount of DMSO.
Product dilution: Stock at 10 mM in pure DMSO—range from 10 mM to 30 μM with an increment of 3 in pure DMSO—intermediate dilutions to 1/50 in culture medium and then removal of 10 μl added directly to the cells (200 μl): final range of 10 000 to 30 nM.
At the end of the incubation, the supernatant is carefully removed and rinsing is performed with 200 μl of PBS. Next, 100 μl of lysis buffer are placed directly in the wells on ice and incubated at 4° C. for 30 minutes. Lysis buffer: 10 mM Tris HCl, pH 7.4, 100 mM NaCl, 1 mM EDTA, 1 mM EGTA, 1% Triton X-100, 10% glycerol, 0.1% SDS, 0.5% deoxycholate, 20 mM NaF, 2 mM Na3VO4, 1 mM PMSF and cocktail of antiproteases.
The 100 μl of lysates are transferred into a V-bottomed polypropylene plate and the ELISA is performed immediately, or the plate is frozen at −80° C.
70 μl of kit dilution buffer+30 μL of cell lysate, or 30 μl of lysis buffer for the blanks, are added to each well of the kit plate. Incubation is carried out for 2 h with gentle agitation at ambient temperature.
The wells are rinsed 4 times with 400 μl of kit washing buffer. Incubation is carried out with 100 μl of anti-phospho MET antibody for 1 hour at ambient temperature.
The wells are rinsed 4 times with 400 μl of kit washing buffer. Incubation is carried out with 100 μl of anti-rabbit HRP antibody for 30 minutes at ambient temperature (except for the wells of chromogen alone).
The wells are rinsed 4 times with 400 μl of kit washing buffer. 100 μL of chromogen are introduced and incubation is carried out for 30 minutes in the dark at ambient temperature.
The reaction is stopped with 100 μl of stop solution. The plate is read without delay at […], 0.1 second on a Wallac Victor plate reader.
Target sequence in this assay (P08581 25-1390): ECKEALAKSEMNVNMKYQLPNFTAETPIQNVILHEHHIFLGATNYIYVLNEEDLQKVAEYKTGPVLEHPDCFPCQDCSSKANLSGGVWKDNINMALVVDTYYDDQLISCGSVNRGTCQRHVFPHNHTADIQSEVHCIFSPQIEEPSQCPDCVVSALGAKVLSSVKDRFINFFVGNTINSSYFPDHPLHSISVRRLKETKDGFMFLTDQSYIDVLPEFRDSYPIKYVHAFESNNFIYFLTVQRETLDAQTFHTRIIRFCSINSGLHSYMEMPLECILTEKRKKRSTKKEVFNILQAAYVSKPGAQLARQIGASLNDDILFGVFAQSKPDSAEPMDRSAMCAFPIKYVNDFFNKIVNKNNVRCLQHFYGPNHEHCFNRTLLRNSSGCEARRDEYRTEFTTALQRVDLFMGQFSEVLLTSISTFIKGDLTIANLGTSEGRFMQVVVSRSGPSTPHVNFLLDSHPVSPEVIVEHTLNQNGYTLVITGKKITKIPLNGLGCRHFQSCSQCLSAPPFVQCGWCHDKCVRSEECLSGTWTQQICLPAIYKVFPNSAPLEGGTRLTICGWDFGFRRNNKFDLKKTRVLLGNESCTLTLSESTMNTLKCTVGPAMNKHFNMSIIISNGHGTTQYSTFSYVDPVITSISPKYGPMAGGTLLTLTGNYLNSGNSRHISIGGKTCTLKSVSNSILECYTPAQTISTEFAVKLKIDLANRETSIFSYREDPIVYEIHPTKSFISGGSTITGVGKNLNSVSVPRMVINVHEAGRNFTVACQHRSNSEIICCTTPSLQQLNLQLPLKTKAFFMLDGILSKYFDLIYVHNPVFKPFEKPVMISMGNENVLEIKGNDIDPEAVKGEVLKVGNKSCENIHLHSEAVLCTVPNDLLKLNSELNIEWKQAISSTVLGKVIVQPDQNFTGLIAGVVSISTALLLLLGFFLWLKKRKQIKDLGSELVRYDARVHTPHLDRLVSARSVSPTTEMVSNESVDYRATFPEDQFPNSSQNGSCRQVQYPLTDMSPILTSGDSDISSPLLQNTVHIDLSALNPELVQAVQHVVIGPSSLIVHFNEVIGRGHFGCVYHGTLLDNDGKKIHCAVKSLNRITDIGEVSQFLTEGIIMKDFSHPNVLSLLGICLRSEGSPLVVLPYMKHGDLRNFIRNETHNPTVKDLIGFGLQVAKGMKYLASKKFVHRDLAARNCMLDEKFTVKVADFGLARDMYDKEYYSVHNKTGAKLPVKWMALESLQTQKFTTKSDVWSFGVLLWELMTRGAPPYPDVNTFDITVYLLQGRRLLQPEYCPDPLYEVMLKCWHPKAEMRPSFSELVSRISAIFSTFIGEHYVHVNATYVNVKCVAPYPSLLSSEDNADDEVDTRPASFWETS

The compound `COCCNC(=O)Nc1nc2ccc(Sc3nnc4ccccn34)cc2s1` [Example 5, 1-(2-methoxyethyl)-3-[6-([1,2,4]triazolo[4,3-a]pyridin-3-ylsulphanyl)-1,3-benzothiazol-2-yl]urea] returned a melting point of 252 to 257 °C. In series [1], this compound came in with an IC50 below 1 µM. The 50% inhibitory concentration (IC50) on MET [2] was below 0.1 µM. The compound further yielded a 50% inhibitory concentration (IC50) on MET [3] below 0.1 µM.

`Nc1nc2ccc(Sc3nnc4ccc(-c5ccc(F)cc5)cn34)cc2s1` [Example 7, 6-{[6-(4-fluorophenyl)[1,2,4]triazolo[4,3-a]pyridin-3-yl]sulphanyl}-1,3-benzothiazol-2-amine]: the melting point is above 264 °C. The compound further displayed an IC50 in series [1] below 1 µM. The half-maximal inhibitory concentration (IC50) at MET [2] was below 0.1 µM. The IC50 against MET [3] is below 0.1 µM.

In the case of `O=C(Nc1nc2ccc(Sc3nnc4ccc(-c5cn[nH]c5)cn34)cc2s1)C1CC1` [Example 11, N-(6-{[6-(1H-pyrazol-4-yl)[1,2,4]triazolo[4,3-a]pyridin-3-yl]-sulphanyl}-1,3-benzothiazol-2-yl)cyclopropanecarboxamide], the melting point was above 260 °C. The IC50 in series [1] was below 1 µM. For the same compound, the IC50 on MET [2] was below 0.1 µM. The compound also displayed an IC50 at MET [3] below 0.1 µM.

In turn, `Cc1ccc(-c2ccc3nnc(Sc4ccc5nc(NC(=O)C6CC6)sc5c4)n3c2)cc1F` [Example 12, N-(6-{[6-((3-fluoro-4-methyl)phenyl)[1,2,4]triazolo[4,3-a]pyridin-3-yl]sulphanyl}-1,3-benzothiazol-2-yl)cyclopropanecarboxamide] gave a melting point of 191 °C. The half-maximal inhibitory concentration (IC50) in series [1] is below 1 µM. Besides, the IC50 at MET [2] was below 0.1 µM. The compound further gave a half-maximal inhibitory concentration (IC50) at MET [3] below 0.1 µM.

`O=C(Nc1nc2ccc(Sc3nnc4ccc(-c5cccc(F)c5)cn34)cc2s1)C1CC1` [Example 13, N-(6-{[6-(3-fluorophenyl)[1,2,4]triazolo[4,3-a]pyridin-3-yl]sulphanyl}-1,3-benzothiazol-2-yl)cyclopropanecarboxamide] came in with a melting point above 260 °C. This compound yielded an IC50 in series [1] below 1 µM. Besides, the 50% inhibitory concentration (IC50) at MET [2] was below 0.1 µM. Besides, the IC50 on MET [3] was below 0.1 µM.
